Literature values, collected in patent US11666686B2, “Amtimicrobial silicones” (WYNNVISION, LLC, priority 2020, dated 2023).

In the case of `CCCCCCCCCCCCCCN(C)C` [C14, N,N-dimethyltetradecylamine], the pKa is listed as ~10.
